Laboratory results as given in US7084176B2, “N-arylphenylacetamide derivatives and medicinal compositions containing the same” (Dainippon Pharmaceutical Co., Ltd., priority 2001, dated 2006).
Structures can show the parent of a compound that is named as a salt. Where two headings read alike, the source gives them in different places.

How the values were obtained:
male Std:ddY mice = experiment: Phenyl-1,4-benzoquinone-induced writhing test; format: in vivo; settings: for inhibition in vivo at 10 mg/kg / inhibition in vivo at 1 mg/kg: 1 h; for inhibition in vivo at 10 mg/kg / Inhibitory percentage (%): orally administered at a dose of 10 mg/kg; for inhibition in vivo at 10 mg/kg / inhibition in vivo at 1 mg/kg / Inhibitory percentage (%): 60 minutes before PBQ; for inhibition in vivo at 1 mg/kg: subcutaneously administered at a dose of 1 mg/kg; for ED50 / ED50 (mg/kg po) / Inhibitory percentage (%) / ED50 (mg/kg sc): writhing inhibition; for ED50 / ED50 (mg/kg po) / ED50 (mg/kg sc): logit analysis
Protocol: Phenyl-1,4-benzoquinone-induced Writhing Test Referring to the method disclosed in Proc. Soc. exp. Biol. […] For oral administration, a test compound was suspended in 0.5% tragacanth solution. […] In the control group, a physiological saline solution containing 10% Tween 80 and 10% ethanol was administered in the case of subcutaneous administration, or a 0.5% tragacanth solution was administered in the case of oral administration. The number of writhing movements in the test compound-treated group was compared with that in the control group, and the writhing inhibitory percentage was calculated therefrom and considered as an analgesic effect. Writhing inhibitory percentage (%)=[(A−B)/A]×100 In the above equation, A means the number of writhing movements in the control group, and B means the number of writhing movements in the test compound-treated group. From the writhing inhibitory percentage of the test compound, ED50 (mg/kg) was calculated by logit analysis.

Jcl:SD strain male rats = experiment: Study of pungency (eye wiping test); format: in vivo; settings: a drop into the eye of rats, counted for 3 minutes, average ± S.E.M.
Protocol: Experiment 2: Study of Pungency (Eye Wiping Test)
The pungency of the test compounds were studied referring to the method of Jancso et al. [Acta Physiol. Acad. Sci. Hung., 19, 113–131 (1961)] and the method of Szallasi et al. [Brit. J. Pharmacol., 119, 283–290 (1996)]. A test compound was dissolved in a physiological saline solution containing 10% ethanol and 10% Tween 80 into various concentrations (μg/ml), and a drop of the solution thereof was added dropwise into the eye of Jcl:SD strain male rats (5 to 25 […] per group, body weight; 220 to 280 g). Then, the number of the protective wiping movements with forefoot was counted for 3 minutes, and was considered as an index for pungency. The test results are expressed as average value±S.E.M., and the statistical significant differences between each test compound-treated group and the control group were analyzed using non-parametric Dunnett's multiple range test, and p<0.05 was considered as significant difference.

[1] = Mus musculus, po, read-out: Inhibitory percentage (%)
[2] = Mus musculus, sc, read-out: Inhibitory percentage (%)
[3] = Mus musculus, sc, subcutaneous administration, read-out: ED50 (mg/kg sc)
[4] = Mus musculus, po, oral administration, read-out: ED50 (mg/kg po)

| SMILES | inhibition in vivo at 10 mg/kg (male Std:ddY mice; [1]) | inhibition in vivo at 1 mg/kg (male Std:ddY mice; [2]) | ED50 (male Std:ddY mice; [3]) | Number of wiping movements (Jcl:SD strain male rats; concentration 500 μg/ml) | ED50 (male Std:ddY mice; [4]) | other results |
| --- | --- | --- | --- | --- | --- | --- |
| COc1cc(CC(=O)Nc2cccc(C3CCC(C(C)(C)C)CC3)c2)ccc1OCCN (centres unmarked) [Example 62, 4-(2-aminoethoxy)-N-[3-(4-tert-butylcyclohexan-1-yl)phenyl]-3-methoxyphenylacetamide] | 96.1% | 100% | 0.23 mg/kg | no significant increase | – | ED50 (mg/kg po) (male Std:ddY mice; oral administration, listed as Ex. 62): 0.43 mg/kg; Number of wiping movements (Jcl:SD strain male rats; concentration 500 μg/ml, listed as Ex. 62): 4.6 ± 1.2; Number of wiping movements (Jcl:SD strain male rats; concentration 1000 μg/ml): 7.6 ± 1.4 |
| COc1cc(CC(=O)Nc2cccc(-c3ccc4c(c3)OCO4)c2)ccc1OCCN [Example 164, 4-(2-aminoethoxy)-N-[3-(2H-benzo[d]-1,3-dioxolan-5-yl)phenyl]-3-methoxyphenylacetamide] | – | – | – | no significant increase | – | ED50 (mg/kg po) (male Std:ddY mice; oral administration): 1.56 mg/kg; Inhibitory percentage (%) (male Std:ddY mice): 99.0%; Number of wiping movements (Jcl:SD strain male rats; concentration 100 μg/ml): 5.4 ± 2.8; Number of wiping movements (Jcl:SD strain male rats; concentration 500 μg/ml, listed as Ex. 164): 2.8 ± 1.7 |
| COc1cc(CC(=O)Nc2cccc(C3CCC(C(C)(C)C)CC3)c2)ccc1O (centres unmarked) [Example 20, N-[3-(4-tert-butylcyclohexan-1-yl)phenyl]-4-hydroxy-3-methoxyphenylacetamide] | 97.1% | 96.1% | ≤ 0.1 mg/kg | 10.6 ± 0.7 | 1.28 mg/kg | ED50 (mg/kg sc) (male Std:ddY mice; subcutaneous administration, listed as Ex. 20): 0.056 mg/kg; Number of wiping movements (Jcl:SD strain male rats; concentration 100 μg/ml): 5.0 ± 1.3 |
| COc1cc(CC(=O)Nc2cccc(-c3ccc(Cl)cc3)c2)ccc1OCCN [Example 67, 4-(2-aminoethoxy)-N-[3-(4-chlorophenyl)phenyl]-3-methoxyphenylacetamide] | 90.2% | – | – | 13.4 ± 2.8 | – | Number of wiping movements (Jcl:SD strain male rats; concentration 100 μg/ml): 3.8 ± 1.3 |
| COc1cc(CC(=O)Nc2cccc(CCc3ccccc3)c2)ccc1OCCN [Example 60, 4-(2-aminoethoxy)-3-methoxy-N-[3-(2-phenylethyl)phenyl]-phenylacetamide] | – | 50.5% | 0.83 mg/kg | no significant increase | ≤ 1 mg/kg | ED50 (mg/kg po) (male Std:ddY mice; oral administration, listed as Ex. 60): 0.68 mg/kg; Number of wiping movements (Jcl:SD strain male rats; concentration 500 μg/ml, listed as Ex. 60): 4.2 ± 1.2; Number of wiping movements (Jcl:SD strain male rats; concentration 1000 μg/ml): 8.4 ± 2.1 |
| COc1cc(CC(=O)Nc2cccc(-c3cccc(Oc4ccccc4)c3)c2)ccc1OCCN [Example 186, 4-(2-aminoethoxy)-3-methoxy-N-[3-(3-phenoxyphenyl)phenyl]-phenylacetamide] | 84.3% | – | – | 12.2 ± 2.0 | 1.83 mg/kg | Number of wiping movements (Jcl:SD strain male rats; concentration 100 μg/ml): 4.0 ± 1.1 |
| COc1cc(CC(=O)Nc2cccc(-c3cccc(F)c3)c2)ccc1OCCN [Example 66, 4-(2-aminoethoxy)-N-[3-(3-fluorophenyl)phenyl]-3-methoxyphenylacetamide] | 100% | – | – | no significant increase | – | Number of wiping movements (Jcl:SD strain male rats; concentration 100 μg/ml): 5.6 ± 2.4; Number of wiping movements (Jcl:SD strain male rats; concentration 500 μg/ml, listed as Ex. 66): 3.6 ± 1.6 |
| COc1cc(CC(=O)Nc2cccc(-c3ccccc3)c2)ccc1OCCN.Cl [Example 63, 4-(2-aminoethoxy)-3-methoxy-N-(3-phenylphenyl)phenylacetamide] | 100% | 100% | – | – | – | ED50 (mg/kg po) (male Std:ddY mice; oral administration, listed as Ex. 63): 0.021 mg/kg; ED50 (mg/kg sc) (male Std:ddY mice; subcutaneous administration, listed as Ex. 63): 0.016 mg/kg |
| COc1cc(CNC(=O)CCCC/C=C/C(C)C)ccc1O [Capsaicin, trans-8-methyl-N-vanillyl-6-nonenamide, reference compound] | – | 46.6% | 1.15 mg/kg | – | > 30 mg/kg | inhibition in vivo at 30 mg/kg (male Std:ddY mice; Mus musculus, po, orally administered at a dose of 30 mg/kg, read-out: Inhibitory percentage (%)): 20.6%; Number of wiping movements (Jcl:SD strain male rats; concentration 1 μg/ml): 6.0 ± 0.8; Number of wiping movements (Jcl:SD strain male rats; concentration 2 μg/ml): 7.8 ± 1.4; Number of wiping movements (Jcl:SD strain male rats; concentration 5 μg/ml): 11.2 ± 3.0; Number of wiping movements (Jcl:SD strain male rats; concentration 5 μg/ml, listed as capsaicin): significantly increased; Number of wiping movements (Jcl:SD strain male rats; concentration 10 μg/ml): 26.4 ± 6.0; Number of wiping movements (Jcl:SD strain male rats; concentration 20 μg/ml): 38.0 ± 4.8 |
| COc1cc(CC(=O)Nc2cccc(C3CCCCC3)c2)ccc1OCCN [Example 61, 4-(2-aminoethoxy)-N-(3-cyclohexylphenyl)-3-methoxyphenylacetamide] | 89% | 72.8% | 0.13 mg/kg | 15.6 ± 4.5 | 3 mg/kg | Number of wiping movements (Jcl:SD strain male rats; concentration 20 μg/ml): 2.0 ± 0.8; Number of wiping movements (Jcl:SD strain male rats; concentration 100 μg/ml): 7.4 ± 2.1 |
| COc1cc(CC(=O)Nc2cccc(-c3cccc(C(C)(C)C)c3)c2)ccc1OCCN [Example 169, 4-(2-aminoethoxy)-N-[3-(3-tert-butylphenyl)phenyl]-3-methoxyphenylacetamide] | 100% | – | – | – | 1.29 mg/kg | – |
| COc1cc(CC(=O)Nc2cccc(-c3ccccc3C(F)(F)F)c2)ccc1OCCN [Example 142, 4-(2-aminoethoxy)-3-methoxy-N-[3-(2-trifluoromethylphenyl)-phenyl]phenylacetamide] | 98.9% | – | – | – | 1.19 mg/kg | – |
| COc1cc(CC(=O)Nc2cccc(-c3ccccc3SC)c2)ccc1OCCN [Example 158, 4-(2-aminoethoxy)-3-methoxy-N-[3-(2-methylthiophenyl)-phenyl]phenylacetamide] | 95.1% | – | – | – | 2.12 mg/kg | – |
| COc1cc(CC(=O)Nc2cccc(-c3ccccc3)c2)ccc1O [Example 35, 4-hydroxy-3-methoxy-N-(3-phenylphenyl)phenylacetamide] | – | 89.4% | 0.23 mg/kg | – | – | – |
| COc1cc(CC(=O)Nc2cccc(CCc3ccccc3F)c2)ccc1OCCN [Example 219, 4-(2-aminoethoxy)-3-methoxy-N-[3-[2-(2-fluorophenyl)ethyl]-phenyl]phenylacetamide] | 94% | – | – | – | 1.46 mg/kg | – |
| COc1cc(CC(=O)Nc2cc(-c3ccccc3)ccc2C)ccc1OCCN [Example 172, 4-(2-aminoethoxy)-N-[(2-methyl-5-phenyl)phenyl]-3-methoxyphenylacetamide] | – | – | – | – | – | ED50 (mg/kg po) (male Std:ddY mice; oral administration): 4.42 mg/kg; Inhibitory percentage (%) (male Std:ddY mice): 75.9% |
| COc1cc(CC(=O)Nc2cccc(C3CCCCCC3)c2)ccc1OCCN [Ex. 58, 4-(2-aminoethoxy)-N-(3-cycloheptylphenyl)-3-methoxyphenylacetamide hydrochloride] | – | 54.4% | – | – | – | – |
| COc1cc(CC(=O)Nc2cccc(-c3cc(F)cc(F)c3)c2)ccc1OCCN [Example 129, 4-(2-aminoethoxy)-N-[3-(3,5-difluorophenyl)phenyl]-3-methoxyphenylacetamide] | 76.9% | – | – | – | 1.89 mg/kg | – |
| COc1cc(CC(=O)Nc2cccc(N3CCC(C(C)(C)C)CC3)c2)ccc1O [Example 86, N-[3-(4-tert-butylpiperidin-1-yl)phenyl]-4-hydroxy-3-methoxyphenylacetamide] | – | 78.8% | 0.33 mg/kg | – | – | – |
| COc1cc(CC(=O)Nc2cccc(C3CCCC3)c2)ccc1O [Example 4, N-(3-cyclopentylphenyl)-4-hydroxy-3-methoxyphenylacetamide] | – | 79.6% | – | – | – | – |
| COc1cc(CC(=O)Nc2cccc(N3CCCC(C4CCCCC4)C3)c2)ccc1OCCN (centres unmarked) [Example 199, 4-(2-aminoethoxy)-N-[3-(3-cyclohexylpiperidin-1-yl)phenyl]-3-methoxyphenylacetamide] | 71.6% | – | – | – | – | – |
